# Experimental data: PubChem BioAssay (NCI)
# Values joined by “and” are separate entries in the source; they are usually repeats but may differ in a detail not shown here. Equal values may be shown once.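 In this assay, cells in 96-well plates receive the compound at five concentrations for 48 hours. Endpoints are linearly interpolated between the surrounding concentrations. GI50 is the concentration that inhibits growth by half. TGI: total growth inhibition.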
# Experiments:
# Assay in all cases: NCI anticancer screen, dose series, 48 h
# [1] = test system: K-562 leukemia
# [2] = test system: SNB-75 CNS
# [3] = test system: SNB-19 CNS
# [4] = test system: MALME-3M melanoma
# [5] = test system: A549 NSCLC
# [6] = test system: UACC-257 melanoma
# [7] = test system: HT29 colon
# [8] = test system: SK-OV-3 ovarian
# [9] = test system: HCT-15 colon
# [10] = test system: RPMI-8226 leukemia
SMILES,GI50 [1] [µM],TGI [1],GI50 [2] [µM],TGI [2],GI50 [3],TGI [3] [µM],GI50 [4] [µM],TGI [4] [µM],GI50 [5] [µM],TGI [5],GI50 [6] [µM],TGI [6] [µM],GI50 [7] [µM],TGI [7] [µM],GI50 [8] [µM],TGI [8],GI50 [9] [µM],TGI [9],TGI [10],GI50 [10]
NC(CCl)=NCC12CC3CC(CC(C3)C1)C2,0.5,5.21 µM,2.21,15.4 µM,10 µM,23,6.32,27.3,0.792,15.7 µM,1.75,5.27,0.458,2.93,4.1,16.7 µM,0.807,13.7 µM,,
CC1=NC(C)=C(/C(C)=N/NC(=O)c2ccccc2O)C(C)/C1=C(/C)NNC(=O)c1ccccc1O (configuration not stated),,35.3 µM,,93.6 µM,,> 100,,80.8,,96.5 µM,,76.6,,> 100,,> 100 µM,,99 µM,,
Oc1ccc(O)c(-n2cccn2)c1,,64.3 µM,,> 100 µM,,> 100,,> 100,,> 100 µM,,,,> 100,,> 100 µM,,> 100 µM,> 100 µM,
CCCCSC1CCSc2c1ccc1ccccc21 (configuration not stated),,> 100 µM,,,,> 100,,46.9,,> 100 µM,,,,> 100,,> 100 µM,,> 100 µM,> 100 µM,
COc1ccc(C2=NN(C(C)=O)c3nc4ccccc4nc3O2)cc1,,> 100 µM,,21.7 µM,,87.7,,> 100,,> 100 µM,,> 100,,> 100,,,,> 100 µM,> 100 µM,
Cc1ccc(S(=O)(=O)NC(Cc2ccccc2)C(=O)CCl)cc1 (configuration not stated),,> 100 µM,,28 µM,,32.1,,27.8,,31.5 µM,,24.9,,28.5,,47 µM,,31.6 µM,,
Cc1ccc([N+](=O)[O-])cc1NC(=O)C(=O)Cc1nc2ccc(C(=O)c3ccccc3)cc2[nH]c1=O,,,,> 100 µM,,> 100,,> 100,,> 100 µM,,> 100,,> 100,,> 100 µM,,> 100 µM,,
C=C1C2CC(OC(C)=O)C3(C)C(c4ccoc4)OC(=O)[C@@H](O)[C@]13OC1C[C@H](OC(C)=O)C(C)(C)[C@H](C(O)C(=O)OC)[C@]12C (some centres not stated),,> 100 µM,,> 100 µM,,> 100,,,,> 100 µM,,,,> 100,,> 100 µM,,> 100 µM,> 100 µM,
FC(F)(F)c1cccc(Oc2ccc(Nc3ncnc4ccc(OCCCN5CCOCC5)cc34)cc2Cl)c1,1.5,5.47 µM,1.45,7.33 µM,2.34 µM,7.15,1.6,3.07,1.88,5.64 µM,2.03,4.52,1.75,3.93,1.38,15.5 µM,1.48,3.16 µM,,
Cc1cc(C)c([I+]c2c(C)cc(C)cc2C)c(C)c1,0.319,1.43 µM,0.342,1.39 µM,0.444 µM,1.76,0.37,1.46,0.958,2.47 µM,0.296,1.09,0.279,1.29,1.14,2.37 µM,2.15,6.76 µM,,
CC(=O)N(N=O)c1ccc(N(N=O)C(C)=O)cc1,,> 100 µM,,> 100 µM,,> 100,,> 100,,> 100 µM,,,,> 100,,> 100 µM,,> 100 µM,> 100 µM,
N[C@@H](Cc1c[nH]c2ccccc12)C(=O)NC1CCN(Cc2c[nH]c3ccc(Cl)cc23)CC1,2.72,12.5 µM,11.6,29.1 µM,10.4 µM,23.9,1.86,3.98,13.9,27.5 µM,,,10.8,23.5,14.6,28.1 µM,16.2,31 µM,23.3 µM,6.23 µM
COc1ccc2cc(C(=O)N3CCC([C@@H](C)C(=O)NCc4ccc5c(c4)OCO5)CC3)[nH]c2c1,79.4,> 100 µM,17.8,78.3 µM,56.7 µM,> 100,> 100,> 100,> 100,> 100 µM,,,> 100,> 100,> 100,> 100 µM,> 100,> 100 µM,> 100 µM,> 100 µM
CC(=O)CCc1ccc(Oc2c3ccccc3nc3occc23)cc1,25.2,> 100 µM,22.4,61 µM,19.5 µM,48,,,15.6,35.2 µM,14.4,28,18,50.6,17.8,41.4 µM,18.6,73.7 µM,53.9 µM,13.8 µM
CSc1nc2c(nc(N)n2C2OC(CO)C(O)C(O)C2O)c(=O)[nH]1 (configuration not stated),,> 100 µM,,> 100 µM,,> 100,,> 100,,> 100 µM,,> 100,,> 100,,> 100 µM,,,,
COC(=O)CCCCCOS(=O)(=O)c1ccc(C)cc1,,> 100 µM,,> 100 µM,,> 100,,> 100,,> 100 µM,,> 100,,> 100,,> 100 µM,,> 100 µM,,
CC1(C)CC[C@]2(C(=O)NCCNCCN)CC[C@]3(C)C(=CC[C@@H]4[C@@]5(C)CCC(=O)C(C)(C)[C@@H]5CC[C@]43C)[C@@H]2C1,2.74,> 100 µM,,,1.73 µM,3.23,1.83,3.43,,,1.86,3.85,1.96,4.43,2.56,6.09 µM,1.79,3.29 µM,6.26 µM,2.44 µM
Cc1cccc2c(=O)c3c(sc12)c(NCCCN)nc1ccccc13,,,1.02,2.31 µM,,,1.61,3.09,0.88,2.45 µM,1.76,3.46,,,,,1.35,2.84 µM,3.88 µM,1.77 µM
COC(=O)C(/C(=N/N)C(=O)Nc1cc(Cl)ccc1Cl)c1nc2ccc([N+](=O)[O-])cc2[nH]c1=O (configuration not stated),,> 100 µM,,,,> 100,,> 100,,> 100 µM,,> 100,,> 100,,> 100 µM,,> 100 µM,> 100 µM,
C/C(COc1ccc2oc(-c3ccccc3)cc(=O)c2c1)=N\O,70.7,> 100 µM,> 100,> 100 µM,26.7 µM,> 100,,,45.4,> 100 µM,> 100,> 100,22.7,> 100,> 100,> 100 µM,7.87,> 100 µM,62.3 µM,22.3 µM
Oc1ccc(Br)cc1C=NC1CCCCC1,,> 100 µM,,,,> 100,,> 100,,> 100 µM,,> 100,,> 100,,> 100 µM,,> 100 µM,> 100 µM,
COc1cc(/C=C2\C[C@H]3[C@@H]4CC=C5C[C@@H](O)CC[C@]5(C)[C@H]4CC[C@]3(C)[C@H]2O)ccc1OCCN1CCCCC1,0.491,1.32 µM,,,2.17 µM,> 50,,,0.815,2.23 µM,1.61,5.02,1.54,> 50,,,0.465,1.03 µM,1.98 µM,0.776 µM
C=C(C)[C@@H]1C/C=C(/COC(C)=O)CC[C@H]2O[C@@]2(C)CC/C=C(\C)CC1,21.4,45.1 µM,,,> 100 µM,> 100,> 100,> 100,40.1,> 100 µM,,,,,> 100,> 100 µM,> 100,> 100 µM,44 µM,21.1 µM
NCCCNCc1c2ccccc2c(CNCCCN)c2ccccc12,,32.5 µM,,44 µM,,> 100,,24.2,,82.6 µM,,45.1,,94.3,,,,54.1 µM,,
COC(=O)[C@@H](C)C[C@H](Cc1ccccc1)NC(=O)c1csc([C@@H](C[C@H](C(C)C)N(C)C(=O)[C@@H](NC(=O)[C@H]2CCCCN2C)c2ccc(F)cc2)OC(C)=O)n1,,25 µM and 20.8 µM,,17.6 µM and 61.3 µM,0.0163 µM and 0.0441 µM,> 100,,,,25 µM and > 100 µM,,> 100,,,,25 µM and > 100 µM,,25 µM and > 100 µM,25 µM and 22 µM,0.00504 µM and 0.0025 µM and 0.0207 µM
O=C(N/C(=C\c1cccc([N+](=O)[O-])c1)c1nc2c3c(ccc2[nH]1)C(=O)c1ccccc1C3=O)c1ccccc1,,,,> 100 µM,,> 100,,> 100,,> 100 µM,,,,> 100,,78 µM,,> 100 µM,> 100 µM,
